“Also recorded” adds a separate entry of the source.
Key:
colony-forming HSPCs [1] = assay: Mobilization of colony-forming HSPCs into the peripheral blood of sickle cell model mice (CFU count); assay type: in vivo, sickle cell model mice (Townes model mice); conditions: clotrimazole 50 mg/kg/day i.p. for 4 days, AMD3100 s.c. one hour before analyses, FIGS. 4A, 4B
Protocol: (§1) Mice were treated with 27HC (10 mg/kg/day) and/or G-CSF (250 μg/kg/day) for 4 days and then treated with AMD3100 (5 mg/kg) one hour before the peripheral blood collection (FIG. 1). Peripheral blood mononuclear cells (PBMCs) were isolated by density gradient centrifugation, and were seeded in the methylcellulose culture medium. Colonies were counted after 12 days of culture.
(§2) This experiment was performed as described in Example 1, except, clotrimazole (50 mg/kg/day) was used instead of 27HC.

colony-forming HSPCs [2] = assay: Mobilization of colony-forming HSPCs into the peripheral blood of mice (CFU count of PBMCs in methylcellulose culture); assay type: in vivo, C57BL/6 mice; conditions: 50 mg/kg/day oral gavage for 4 days, AMD3100 s.c. one hour before analyses, no G-CSF; trends; FIGS. 5A, 5B
colony-forming HSPCs [3] = assay: as above; assay type: in vivo, C57BL/6 mice
Protocol: To test whether co-administration of 27HC with G-CSF plus another clinically-used HSC mobilizing agent, AMD3100 (a CXCR4 chemokine receptor antagonist that is also known as plerixafor), further enhances HSC mobilization. Two-month-old C57BL/6 mice were treated with a single agent alone, a combination of two agents (27HC+AMD3100, or G-CSF+AMD3100), all three agents combined, or vehicle alone (2-hydroxypropyl-β-cyclodextrin for 27HC, PBS for G-CSF, and PBS for AMD3100).
as §1, §2

colony-forming HSPCs [4] = conditions: AMD3100 s.c. injection; cited from earlier work
HSCs [5] = conditions: recently demonstrated; cited from earlier work
HSCs [6] = assay: HSC proliferation and mobilization in mice treated with ERα ligands; assay type: in vivo; conditions: E2: male mice and non-pregnant females
From the text: However, the mechanism by which E2 and 27HC, two endogenous ERα ligands, differentially regulate HSCs is unknown. […] E2 levels increase during pregnancy, when extramedullary hematopoiesis (EMH) is induced to increase the production of red blood cells. In addition to increased HSC proliferation, EMH during pregnancy requires increased HSC mobilization, which the present inventors found to also depend on ERα in HSCs. […] Thus, through their differential effects on HSC behavior in vivo—E2 and 27HC act in concert to promote hematopoiesis during pregnancy.

Row | SMILES | CFUs (including CFU-gmEM) in the peripheral blood, two-agent combination with AMD3100 versus AMD3100 single agent (colony-forming HSPCs [2]) | Effect of treatment of mice on HSC proliferation and mobilization (HSCs [5]) | Effect of administration on HSC proliferation and mobilization (found by the present inventors) (HSCs [6]) | also measured
1 | Clc1ccccc1C(c1ccccc1)(c1ccccc1)n1ccnc1 [clotrimazole] | synergistic effects with the single-agent AMD3100 treatment |  |  | CFUs (including CFU-gmEM) in the peripheral blood, two-agent combination with AMD3100 versus AMD3100 single agent (colony-forming HSPCs [1]): significantly more CFUs, including CFU-gmEM, than the single-agent AMD3100 treatment; CFUs (including CFU-gmEM) in the peripheral blood, three-agent combination with G-CSF and AMD3100 versus G-CSF and AMD3100 (colony-forming HSPCs [3]; clotrimazole 50 mg/kg/day i.p. for 4 days, G-CSF s.c. for 4 days, AMD3100 one hour before analyses, FIGS. 3C, 3D): more CFUs, including CFU-gmEM, than the two-agent combination treatment with G-CSF and AMD3100; CFUs in the peripheral blood, two-agent combination with AMD3100 versus AMD3100 single agent (colony-forming HSPCs [3]; clotrimazole 50 mg/kg/day i.p., AMD3100 s.c. one hour before analyses, FIGS. 3A, 3B): significantly more CFUs than the single-agent AMD3100 treatment
2 | c1cc(CN2CCCNCCNCCCNCC2)ccc1CN1CCCNCCNCCCNCC1 [AMD3100] |  |  |  | Time of peak mobilization of HSCs after AMD3100 injection (colony-forming HSPCs [4]): one hour post administration
3 | C[C@@H](CO)CCC[C@@H](C)[C@H]1CC[C@H]2[C@@H]3CC=C4C[C@@H](O)CC[C@]4(C)[C@H]3CC[C@]12C [27HC, 27-hydroxycholesterol] |  | induces ERα-dependent HSC mobilization but not proliferation | induces HSC mobilization (but not proliferation) | CFUs (including CFU-gmEM) in the peripheral blood, three-agent combination with G-CSF and AMD3100 versus G-CSF and AMD3100 (colony-forming HSPCs [3]; 27HC 10 mg/kg/day and G-CSF 250 μg/kg/day s.c. for 4 days, AMD3100 5 mg/kg one hour before collection, FIGS. 2C, 2D): significantly more CFUs, including CFU-gmEM, than the two-agent combination treatment with G-CSF and AMD3100; also recorded: mobilized more colony-forming HSPCs as compared to a single agent alone or a combination of two agents; CFUs in the peripheral blood, two-agent combination with AMD3100 versus AMD3100 single agent (colony-forming HSPCs [3]; 27HC 10 mg/kg/day s.c. for 4 days, AMD3100 5 mg/kg s.c. one hour before blood collection, FIGS. 2A, 2B): significantly more CFUs than the AMD3100 single-agent treatment; also recorded: mobilized colony-forming HSPCs significantly more than AMD3100 alone; HSC mobilization on treating mice with 27HC (colony-forming HSPCs [3]; FIG. 2): promotes HSC mobilization
4 | C[C@@H](c1ncncc1F)[C@](O)(Cn1cncn1)c1ccc(F)cc1F [voriconazole] | generated more CFUs, including CFU-gmEM, than the single-agent AMD3100 treatment |  |  | 
5 | C[C@]12CC[C@@H]3c4ccc(O)cc4CC[C@H]3[C@@H]1CC[C@@H]2O [E2, 17β-estradiol] |  | induces HSC proliferation but not mobilization | induces HSC proliferation but not mobilization | 
6 | CC(C)(C(=O)c1cccnc1)c1cccnc1 [metyrapone] | generated more CFUs, including CFU-gmEM, than the single-agent AMD3100 treatment |  |  | 
